Data reported in patent US12139520B2 (priority 2020, dated 2024).
Numbered stars: 1 amine (or outer) side, 2 acyl side, 3 side chain; on linkers, the order of the positions; unused ones are H or OH. Bridge positions count the residues as written; N and C are the ends. Square brackets hold non-standard residues; d marks the D form. Peptide text beside a SMILES is read from it. * marks the point of attachment. C20 diacid = O=C(O)CCCCCCCCCCCCCCCCCCC(=O)*; γGlu = O=C(O)[C@H](CCC(=O)[*:2])N[*:1]; Hyp = O=C(O)[C@@H]1C[C@@H](O)CN1; NMeI = CC[C@H](C)[C@H](NC)C(=O)O; Aad = N[C@@H](CCCC(=O)O)C(=O)O; Sar = CNCC(=O)O

Key:
[1] = biological target: T1, hAMY3 receptor (Homo sapiens, UniProt O60896+P30988); test: cAMP assay for in vitro receptor activation, hAMY3-R; format: cell-based; conditions: cAMP assay, hAMY3 receptor; read-out: hAMY3R EC50
T1 sequence (P30988 25-474): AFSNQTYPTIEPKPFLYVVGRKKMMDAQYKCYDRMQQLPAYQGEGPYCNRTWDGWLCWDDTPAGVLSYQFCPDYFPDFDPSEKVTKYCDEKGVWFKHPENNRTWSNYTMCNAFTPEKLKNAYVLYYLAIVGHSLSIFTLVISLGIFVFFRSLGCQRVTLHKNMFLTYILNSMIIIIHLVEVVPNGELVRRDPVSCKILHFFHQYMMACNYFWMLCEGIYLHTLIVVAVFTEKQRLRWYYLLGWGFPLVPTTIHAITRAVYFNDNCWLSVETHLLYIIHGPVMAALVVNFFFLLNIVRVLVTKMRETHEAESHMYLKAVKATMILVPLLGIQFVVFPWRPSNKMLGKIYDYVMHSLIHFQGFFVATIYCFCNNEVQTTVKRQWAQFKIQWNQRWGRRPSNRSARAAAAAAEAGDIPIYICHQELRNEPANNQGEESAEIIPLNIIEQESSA
T1 sequence (O60896 24-148 partner): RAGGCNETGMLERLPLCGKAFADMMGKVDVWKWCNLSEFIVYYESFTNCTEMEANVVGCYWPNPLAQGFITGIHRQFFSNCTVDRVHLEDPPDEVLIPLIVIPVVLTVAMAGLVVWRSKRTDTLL
Procedure, shortened: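 Read-out is TR-FRET cAMP signal, recorded one hour after reagent addition, following 30 min room-temperature stimulation of stable hAMY3 cells with graded compound doses in casein/IBMX (0.5 mM) buffer.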

[2] = biological target: hAM1 receptor (Homo sapiens, UniProt O60895+Q16602); test: cAMP assay for in vitro receptor activation, hAM1-R; format: cell-based; conditions: cAMP assay, hAM1 receptor; read-out: hAM1R EC50
Chain of hAM1 receptor (Q16602 23-461): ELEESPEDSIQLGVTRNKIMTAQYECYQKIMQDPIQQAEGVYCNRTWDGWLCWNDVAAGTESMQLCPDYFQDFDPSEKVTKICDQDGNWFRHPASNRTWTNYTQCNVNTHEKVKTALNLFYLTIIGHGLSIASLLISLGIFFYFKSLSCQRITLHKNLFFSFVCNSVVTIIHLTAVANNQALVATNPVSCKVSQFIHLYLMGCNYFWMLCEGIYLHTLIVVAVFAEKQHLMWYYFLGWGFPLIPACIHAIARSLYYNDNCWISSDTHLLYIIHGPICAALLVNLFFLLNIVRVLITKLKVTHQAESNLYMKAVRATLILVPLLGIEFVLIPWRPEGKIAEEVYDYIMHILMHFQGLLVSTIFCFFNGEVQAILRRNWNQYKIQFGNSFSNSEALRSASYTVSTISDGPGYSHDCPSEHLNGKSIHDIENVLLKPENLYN
Chain of hAM1 receptor (O60895 43-175 partner): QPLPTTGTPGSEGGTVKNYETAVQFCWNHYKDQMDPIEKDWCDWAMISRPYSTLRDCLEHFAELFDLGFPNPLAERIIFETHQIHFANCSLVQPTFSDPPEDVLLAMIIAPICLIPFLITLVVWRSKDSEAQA
Procedure, shortened: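 A subcloned monoclonal line stably expressing hAM1 receptor is thawed and plated at 8000 cells/well. The assay buffer is DPBS with 0.05% casein and 0.5 mM IBMX, and receptor activation is followed by cAMP levels.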

| SMILES | EC50 [1] | EC50 [2] |
| --- | --- | --- |
| CC[C@H](C)[C@H](NC(=O)[C@H](CCC(N)=O)NC(=O)[C@H](Cc1c[nH]cn1)NC(=O)[C@H](C)NC(=O)[C@H](CC(C)C)NC(=O)[C@H](CCCNC(=N)N)NC(=O)[C@H](CCC(N)=O)NC(=O)[C@@H](NC(=O)[C@@H](NC(=O)[C@@H]1CSSC[C@H](NC(=O)[C@@H](N)CCCCN)C(=O)N[C@@H](CC(N)=O)C(=O)N[C@@H]([C@@H](C)O)C(=O)N[C@@H](C)C(=O)N[C@@H]([C@@H](C)O)C(=O)N1)[C@@H](C)O)C(C)C)C(=O)N[C@@H](Cc1ccc(O)cc1)C(=O)N[C@@H](CCC(N)=O)C(=O)N[C@@H](Cc1ccccc1)C(=O)N[C@H](C(=O)N[C@@H](CC(=O)O)C(=O)N[C@@H](CCCCN)C(=O)N[C@@H](CC(=O)O)C(=O)N[C@@H](CCCCN)C(=O)N[C@@H](CC(=O)O)C(=O)N[C@@H](CC(N)=O)C(=O)N[C@H](C(=O)N[C@@H](C)C(=O)N1CCC[C@H]1C(=O)N1CCC[C@H]1C(=O)N[C@H](C(=O)N[C@@H](CC(N)=O)C(=O)N[C@H](C(=O)NCC(=O)N[C@@H](CO)C(=O)N[C@@H](CC(N)=O)C(=O)NCC(=O)N1C[C@H](O)C[C@H]1C(N)=O)C(C)C)[C@@H](C)O)C(C)C)[C@@H](C)O [compound 75] (H-KCNTATCTVQRLAHQIYQFTDKDKDNVAPPTNVGSNG[Hyp]-NH2; disulfide 2-7; N-terminus assumed) | 0.013 nM | > 5000 nM |
| CC[C@H](C)[C@@H](C(=O)N[C@@H](CC(C)C)C(=O)N[C@@H](CO)C(=O)N[C@@H](CO)C(=O)N[C@H](C(=O)N[C@@H](CCC(=O)O)C(=O)N[C@H](C(=O)NCC(=O)N[C@@H](CO)C(=O)N[C@@H](CC(N)=O)C(=O)N[C@H](C(=O)N1C[C@H](O)C[C@H]1C(N)=O)[C@@H](C)O)C(C)C)[C@@H](C)O)N(C)C(=O)[C@H](C)NC(=O)CN(C)C(=O)[C@H](Cc1ccccc1)NC(=O)[C@H](CO)NC(=O)[C@H](CO)NC(=O)[C@H](CCCNC(=N)N)NC(=O)[C@H](CCC(N)=O)NC(=O)[C@H](CC(C)C)NC(=O)[C@H](Cc1ccccc1)NC(=O)[C@H](CCCC(=O)O)NC(=O)[C@H](C)NC(=O)[C@H](CC(C)C)NC(=O)[C@H](CCCNC(=N)N)NC(=O)[C@H](CCC(=O)O)NC(=O)[C@@H](NC(=O)[C@H](C)NC(=O)[C@@H]1CSSC[C@H](NC(=O)[C@H](CCCNC(=N)N)NC(=O)CC[C@H](NC(=O)CCCCCCCCCCCCCCCCCCC(=O)O)C(=O)O)C(=O)NCC(=O)N[C@@H]([C@@H](C)O)C(=O)N[C@@H](C)C(=O)N[C@@H]([C@@H](C)O)C(=O)N1)[C@@H](C)O [compound 76] ({C20 diacid-γGlu}-RCGTATCATERLA[Aad]FLQRSSF[Sar]A[NMeI]LSSTEVGSNT[Hyp]-NH2; disulfide 2-7) | 0.014 nM | > 5000 nM |
| CC[C@H](C)[C@H](NC(=O)[C@H](CCC(N)=O)NC(=O)[C@H](Cc1c[nH]cn1)NC(=O)[C@H](C)NC(=O)[C@H](CC(C)C)NC(=O)[C@H](CCCNC(=N)N)NC(=O)[C@H](CCC(N)=O)NC(=O)[C@@H](NC(=O)[C@@H](NC(=O)[C@@H]1CSSC[C@H](NC(=O)[C@H](CCCCN)NC(=O)CC[C@H](NC(=O)CCCCCCCCCCCCCCCCCCC(=O)O)C(=O)O)C(=O)N[C@@H](CC(N)=O)C(=O)N[C@@H]([C@@H](C)O)C(=O)N[C@@H](C)C(=O)N[C@@H]([C@@H](C)O)C(=O)N1)[C@@H](C)O)C(C)C)C(=O)N[C@@H](Cc1ccc(O)cc1)C(=O)N[C@@H](CCC(N)=O)C(=O)N[C@@H](Cc1ccccc1)C(=O)N[C@H](C(=O)N[C@@H](CC(=O)O)C(=O)N[C@@H](CCCCN)C(=O)N[C@@H](CC(=O)O)C(=O)N[C@@H](CCCCN)C(=O)N[C@@H](CC(=O)O)C(=O)N[C@@H](CC(N)=O)C(=O)N[C@H](C(=O)N[C@@H](C)C(=O)N1CCC[C@H]1C(=O)N1CCC[C@H]1C(=O)N[C@H](C(=O)N[C@@H](CC(N)=O)C(=O)N[C@H](C(=O)NCC(=O)N[C@@H](CO)C(=O)N[C@@H](CC(N)=O)C(=O)NCC(=O)N1C[C@H](O)C[C@H]1C(N)=O)C(C)C)[C@@H](C)O)C(C)C)[C@@H](C)O [compound 77] ({C20 diacid-γGlu}-KCNTATCTVQRLAHQIYQFTDKDKDNVAPPTNVGSNG[Hyp]-NH2; disulfide 2-7) | 0.014 nM | > 5000 nM |
| CC[C@H](C)[C@H](NC(=O)[C@H](CCC(N)=O)NC(=O)[C@H](Cc1c[nH]cn1)NC(=O)[C@H](C)NC(=O)[C@H](CC(C)C)NC(=O)[C@H](CCCNC(=N)N)NC(=O)[C@H](CCC(N)=O)NC(=O)[C@@H](NC(=O)[C@@H](NC(=O)[C@@H]1CSSC[C@H](NC(=O)[C@H](CCCCN)NC(=O)CC[C@H](NC(=O)CCCCCCCCCCCCCCCCCCC(=O)O)C(=O)O)C(=O)N[C@@H](CC(N)=O)C(=O)N[C@@H]([C@@H](C)O)C(=O)N[C@@H](C)C(=O)N[C@@H]([C@@H](C)O)C(=O)N1)[C@@H](C)O)C(C)C)C(=O)N[C@@H](C)C(=O)N[C@@H](CCC(N)=O)C(=O)N[C@@H](Cc1ccccc1)C(=O)N[C@@H](CO)C(=O)N[C@@H](CC(=O)O)C(=O)N[C@@H](CCCCN)C(=O)N[C@@H](CC(=O)O)C(=O)N[C@@H](CCCCN)C(=O)N[C@@H](CC(=O)O)C(=O)N[C@@H](CC(N)=O)C(=O)N[C@H](C(=O)N[C@@H](C)C(=O)N1CCC[C@H]1C(=O)N1CCC[C@H]1C(=O)N[C@H](C(=O)N[C@@H](CC(N)=O)C(=O)N[C@H](C(=O)NCC(=O)N[C@@H](CO)C(=O)N[C@@H](CC(N)=O)C(=O)NCC(=O)N1C[C@H](O)C[C@H]1C(N)=O)C(C)C)[C@@H](C)O)C(C)C [compound 79] ({C20 diacid-γGlu}-KCNTATCTVQRLAHQIAQFSDKDKDNVAPPTNVGSNG[Hyp]-NH2; disulfide 2-7) | 0.014 nM | > 5000 nM |
| CC[C@H](C)[C@H](NC(=O)[C@H](CCC(N)=O)NC(=O)[C@H](Cc1c[nH]cn1)NC(=O)[C@H](C)NC(=O)[C@H](CC(C)C)NC(=O)[C@H](CCCNC(=N)N)NC(=O)[C@H](C)NC(=O)[C@@H](NC(=O)[C@@H](NC(=O)[C@@H]1CSSC[C@H](NC(=O)[C@H](CCCCN)NC(=O)CC[C@H](NC(=O)CCCCCCCCCCCCCCCCCCC(=O)O)C(=O)O)C(=O)N[C@@H](CC(N)=O)C(=O)N[C@@H]([C@@H](C)O)C(=O)N[C@@H](C)C(=O)N[C@@H]([C@@H](C)O)C(=O)N1)[C@@H](C)O)C(C)C)C(=O)N[C@@H](CC(N)=O)C(=O)N[C@@H](CCC(N)=O)C(=O)N[C@@H](Cc1ccccc1)C(=O)N[C@H](C(=O)N[C@@H](CC(=O)O)C(=O)N[C@@H](CCCCN)C(=O)N[C@@H](CC(=O)O)C(=O)N[C@@H](CCCCN)C(=O)N[C@@H](CC(=O)O)C(=O)N[C@@H](CC(N)=O)C(=O)N[C@H](C(=O)N[C@@H](C)C(=O)N1CCC[C@H]1C(=O)N1CCC[C@H]1C(=O)N[C@H](C(=O)N[C@@H](CC(N)=O)C(=O)N[C@H](C(=O)NCC(=O)N[C@@H](CO)C(=O)N[C@@H](CC(N)=O)C(=O)NCC(=O)N1C[C@H](O)C[C@H]1C(N)=O)C(C)C)[C@@H](C)O)C(C)C)[C@@H](C)O [compound 86] ({C20 diacid-γGlu}-KCNTATCTVARLAHQINQFTDKDKDNVAPPTNVGSNG[Hyp]-NH2; disulfide 2-7) | 0.015 nM | > 5000 nM |
| CC[C@H](C)[C@H](NC(=O)[C@H](CCC(N)=O)NC(=O)[C@H](Cc1c[nH]cn1)NC(=O)[C@H](C)NC(=O)[C@H](CC(C)C)NC(=O)[C@H](CCCNC(=N)N)NC(=O)[C@H](CCC(N)=O)NC(=O)[C@@H](NC(=O)[C@@H](NC(=O)[C@@H]1CSSC[C@H](NC(=O)[C@H](CCCCN)NC(=O)CC[C@H](NC(=O)CCCCCCCCCCCCCCCCCCC(=O)O)C(=O)O)C(=O)N[C@@H](CC(N)=O)C(=O)N[C@@H]([C@@H](C)O)C(=O)N[C@@H](C)C(=O)N[C@@H]([C@@H](C)O)C(=O)N1)[C@@H](C)O)C(C)C)C(=O)N[C@@H](C)C(=O)N[C@@H](CCC(N)=O)C(=O)N[C@@H](Cc1ccccc1)C(=O)N[C@H](C(=O)N[C@@H](CC(=O)O)C(=O)N[C@@H](CCCCN)C(=O)N[C@@H](CC(N)=O)C(=O)N[C@@H](CCCCN)C(=O)N[C@@H](CC(=O)O)C(=O)N[C@@H](CC(N)=O)C(=O)N[C@H](C(=O)N[C@@H](C)C(=O)N1CCC[C@H]1C(=O)N1CCC[C@H]1C(=O)N[C@H](C(=O)N[C@@H](CC(N)=O)C(=O)N[C@H](C(=O)NCC(=O)N[C@@H](CO)C(=O)N[C@@H](CC(N)=O)C(=O)NCC(=O)N1C[C@H](O)C[C@H]1C(N)=O)C(C)C)[C@@H](C)O)C(C)C)[C@@H](C)O [compound 87] ({C20 diacid-γGlu}-KCNTATCTVQRLAHQIAQFTDKNKDNVAPPTNVGSNG[Hyp]-NH2; disulfide 2-7) | 0.015 nM | > 5000 nM |
